The test system of series [1] is Human prostate (HPV) cells. The class given is cell-based. To be noted: overnight incubation; 10 μl of 1.5 mM stock per 500 μl medium; ±SEM. The procedure: (§1) Human prostate (HPV) cells were grown under standard conditions. When the cultures reached 40% confluence, the cells were fed basal medium alone for 24 hours and then incubated overnight in medium containing a test substance or sham. The cells were then treated with saturating quantities of ^3H-thymidine (New England Nuclear, Boston, Mass.); DNA was precipitated with 5% perchlorate and relative incorporated thymidine was assessed with a beta counter. Experiments were performed in quadruplicate and averaged. Results reported represent a minimum of three separate quadruplicate experiments.
(§2) The reagents used for tissue culture were iopanoic acid (Sigma, St. Louis, Mo.), sodium ipodate (Fitzgerald Industries International, Flanders, N.J.), and propranolol (Sigma, St. Louis, Mo.). Reagents were dissolved into modestly basic stock solutions to the following final concentrations: 0.025 mM NaOH, 0.2 M NaCl, 1.5 mM reagent. Each experiment used 10 μl of stock reagent (or sham) per 500 μl of medium. For FIGS. 13-18, the “low” concentration is 3 μM for each reagent, and the “high” concentration was 30 μM for each reagent.

Series [2] is described as follows: Serum total thyroxine (T4) by radioimmunoassay in topically treated mice. The series is classed as in vivo, CD-1 mice. The following applies: mice treated with IOP cream, relative to control mice; listed as IOP. The procedure: Serum total thyroxine levels were measured with a standard radioimmunoassay kit (ICN, Orangeburg, N.Y.). Unlike other thyroid hormone kits which use anti-mouse antibodies, the ICN kit uses anti-rabbit antibodies and avoids spuriously elevated readings in mice. Thyroid hormone levels for mice fall at the low end of the human range so the human standards included in the kit were used.

The next series concerns epidermal proliferation. Description: Topical iopanoic acid cream in mice: epidermal thickness and BrdU incorporation. The class given is in vivo, CD-1 mice. The procedure: A topical iopanoic acid (IOP) cream was prepared by mixing IOP (Sigma, St. Louis, Mo.) into a liposome vehicle (Novasome A, IGI inc., New Jersey) previously described (Safer 2001, Safer 2003, Safer 2005). Each mouse received 30 μl of the liposome vehicle applied directly to a 3×3 cm area of shaved skin on the animal's backs. The preparation was applied daily and not removed.
The treatment groups received cream containing 6 mg IOP daily. The control groups were treated with daily application of vehicle alone.
Five week old CD-1 mice were randomized into 2 groups (FIG. 1). The groups had 6 mice each and were evaluated in a crossover study. Each mouse in the crossover study was evaluated twice: once after a 6 mg daily IOP treatment and once after treatment with vehicle alone. Six mice received IOP first followed by a 3 month wash-out/healing completion period. The animals were then evaluated after treatment with topical vehicle alone. Six mice started with vehicle alone and received the IOP treatment after the 3 month wash-out/healing completion period.
All topically treated mice were caged separately to avoid animals receiving doses from their neighbors during grooming. The cream was applied to a midline cephalad region on the animals' backs to minimize the impact of personal grooming on dosing.
Epidermal proliferation was assessed by measuring both epidermal thickness and 5-bromo-2′-deoxyuridine (BrdU, Boehringer Mannheim, Mannheim, Germany) incorporation into DNA. At the completion of the protocols noted, animals were biopsied with full thickness dorsal skin samples were taken. Three hours prior to biopsy, each mouse had received intraperitoneal BrdU as previously described (Safer 2001). Skin samples were fixed in formalin and embedded in paraffin. From each paraffin block, […] sections were made and stained with hematoxylin and eosin (H&E). Epidermal thickness was measured in 10 random locations for each mouse. Additional 5 μm skin histology sections from the above paraffin blocks were stained for BrdU as previously described (Safer 2001). BrdU data are reported as the number of cell nuclei stained/[…] epidermis.
On the technique in general: Uptake of a labelled nucleoside into DNA is a usual measure of proliferation.

Series [3] concerns human epidermal keratinocytes. Description: Human epidermal keratinocyte proliferation, 3H-thymidine incorporation. The class given is cell-based. The following applies: overnight incubation; 10 μl of 1.5 mM stock per 500 μl medium; ±SEM. As to the method: as §1, with “keratinocytes” for “prostate (HPV) cells”, “in primary culture on a support matrix derived from irradiated fibroblasts.” for “under standard conditions.”
as §2

The test system of series [4] is Monkey kidney (CV-1) cells. Description: Monkey kidney cell proliferation, 3H-thymidine incorporation. To be noted: overnight incubation; 10 μl of 1.5 mM stock per 500 μl medium; ±SEM. The series is classed as cell-based. The procedure: Monkey kidney (CV-1) cells were grown under standard conditions. When the cultures reached 40% confluence, the cells were fed basal medium alone for 24 hours and then incubated overnight in medium containing a test substance or sham. The cells were then treated with saturating quantities of ^3H-thymidine (New England Nuclear, Boston, Mass.); DNA was precipitated with 5% perchlorate and relative incorporated thymidine was assessed with a beta counter. Experiments were performed in quadruplicate and averaged. Results reported represent a minimum of three separate quadruplicate experiments.
as §2

Series [5] deals with Opossum kidney (OK) cells. Description: Opossum kidney cell proliferation, 3H-thymidine incorporation. The class given is cell-based. The following applies: overnight incubation; 10 μl of 1.5 mM stock per 500 μl medium; ±SEM. The procedure:
Opossum kidney (OK) cells were grown under standard conditions. When the cultures reached 40% confluence, the cells were fed basal medium alone for 24 hours and then incubated overnight in medium containing a test substance or sham. The cells were then treated with saturating quantities of ^3H-thymidine (New England Nuclear, Boston, Mass.); DNA was precipitated with 5% perchlorate and relative incorporated thymidine was assessed with a beta counter. Experiments were performed in quadruplicate and averaged. Results reported represent a minimum of three separate quadruplicate experiments.
as §2

The mark [6] stands for this setting: topical cream, 6 mg IOP daily, vs vehicle, p<0.05.

“Also recorded” adds a separate entry of the source.

For `CCC(Cc1c(I)cc(I)c(N)c1I)C(=O)O` (centres unmarked) [iopanoic acid], the “inhibition of proliferation of human prostate cells relative to control cultures” value in series [1] amounted to 26±4%. In addition, the “serum T4 levels” value in series [2] is recorded as “remained steady; also recorded: not changed”. In the series with epidermal proliferation (Group 1 mice: control vehicle first, then IOP (FIG. 2)), the epidermal proliferation entry is “significantly diminished”. Moreover, in the series with epidermal proliferation (Group 2 mice: IOP first, then control vehicle (FIG. 3)), the epidermal proliferation result is given as “significantly diminished”. In addition, in the series on epidermal proliferation (setting [6]), the “less epidermal BrdU staining than control mice” value is recorded as 30% and the “thinner epidermis than control mice” value was 20%. In addition, the “inhibition of proliferation of human epidermal keratinocytes relative to control cultures” value in series [3] is listed as 61±9%.
On to `O=C(NCC(O)CO)c1c(I)c(C(=O)NCC(O)CO)c(I)c(N(CCO)C(=O)CO)c1I` (centres unmarked) [ioversol], for which the “inhibition of proliferation of human prostate cells relative to control cultures” value in series [1] is 22%.
With `CN(C)/C=N/c1c(I)cc(I)c(CCC(=O)[O-])c1I.[Na+]` [ipodate sodium], the “inhibition of proliferation of human prostate cells relative to control cultures” value in series [1] was found to be 30±5%. Also, the “inhibition of proliferation of human epidermal keratinocytes relative to control cultures” value in series [3] stood at 14±6%.
Turning to `CC(C)NCC(O)COc1cccc2ccccc12` (centres unmarked) [propranolol], in series [1], the “inhibition of proliferation of human prostate cells relative to control cultures” value is reported as 84±8%. Further, the “inhibition of proliferation of monkey kidney cells relative to control cultures” value in series [4] turned out to be 82±5%. Further, the “inhibition of proliferation of human epidermal keratinocytes relative to control cultures” value in series [3] was 62±3%. For the same molecule, the “inhibition of proliferation of opossum kidney cells relative to control cultures” value in series [5] came to 88±10%.
